Measured values as given in US7671066B2, “Derivatives of 1-phenyl-2-pyridynyl alkylene alcohols as phosphodiesterase inhibitors” (Chiesi Farmaceutici S.p.A., priority 2006, dated 2010).

Legend:
[1] = tested on: PDE4 enzyme; test: PDE4 inhibitory activity in the cell free assay (cAMP disappearance, U937 cell supernatant); format: biochemical, human; conditions: 1.6 μM cAMP, 30 min at 30° C., mean (95% confidence limits)
Procedure: The U937 human monocytic cell line was used as source of PDE4 enzyme. Cells were cultured, harvested and supernatant fraction prepared essentially as described in Torphy T J et al J. Pharmacol. Exp. Ther. 1992; 263:1195-1205.
PDE4 activity was determined in cells supernatants by assaying cAMP disappearance from the incubation mixtures. 50 μl of cell supernatant were incubated at 30° C. for 30 minutes in a final volume of 200 μl in the presence of 1.6 μM cAMP with or without the test compound (50 μl).
The concentration of the test compounds ranged between 10^−12 M and 10^−6 M. Reactions were stopped by heat inactivation (2.5 minutes at 100° C.) and residual cAMP was measured using an electro-chemiluminescence (ECL)-based immunoassay.
The results, expressed as mean ±95% confidence limits of the molar concentration of the test compound producing 50% inhibition of cAMP disappearance (IC50) are reported in Table 1 of Example 38.
Percentage of inhibition of PDE4 activity was calculated, assuming cAMP disappearance in the absence of inhibitors as 100% and cAMP disappearance in heat inactivated samples as 0%.

[2] = tested on: LPS-induced TNF-α release in peripheral blood mononuclear cells (PBMCs); test: PDE4 inhibitory activity in the PBMCs assay (LPS-induced TNF-α release); format: cell-based; conditions: PBMC; human PBMCs, LPS 3 ng/ml, 18 h, TNF-α by ELISA; mean (95% confidence limits)
Procedure: The assay, which is based on the known inhibitory activity exerted by PDE4 inhibitors on the lipopolyshaccarides (LPS)-induced tumour necrosis factor-alpha (TNF-α) release in peripheral blood mononuclear cells (PBMCs), was performed according to a method previously described (Hatzelmann A et al J. Pharmacol. Exp. Ther. 2001; 297:267-279; Draheim R et al J. Pharmacol. Exp. Ther. 2004; 308:555-563.
Cryopreserved human PBMCs, (100 μl/well) were incubated in 96-well plates (10^5 cells/well), for 30 min, in the presence or absence (50 microl) of the test compounds whose concentrations ranged from 10^−12 M to 10^−6 M. Subsequently, LPS (3 ng/ml) was added.
After 18 h incubation at 37° C. in a humidified incubator under an atmosphere of 95% air and 5% CO2, culture medium was collected and TNF-α measured by ELISA.
The results, expressed as mean ±95% confidence limits of the molar concentration of the test compound producing 50% inhibition of LPS-induced TNF-α release (IC50) are reported in Table 1.
The effects of the tested compounds were calculated as percentage of inhibition of TNF-α release, assuming LPS-induced TNF-α production in the absence of inhibitor compound as 100% and basal TNF-α production of PBMCs in the absence of LPS as 0%.

[3] = tested on: bronchoalveolar lavage neutrophils; test: LPS-induced acute pulmonary inflammation in rats (animal model of COPD), intratracheal administration; format: in vivo
Procedure: The anti-inflammatory activity of a representative compound of the invention, e.g. CHF 5480 was evaluated after intratracheal (i.t.) administration according to the method described in Belvisi M G J Pharmacol Exp Ther 2005, 314: 568-574.
CHF 5480 was tested by i.t. instillation 24 h and 1 h before exposure to LPS.

[4] = Pulmonary and plasma levels after intratracheal administration; format: in vivo, rats
[5] = target: HPDE4; test: Competition for high affinity HPDE4 ([H3]rolipram binding); conditions: 50% inhibition of the binding of [H3]rolipram
Procedure: (§1) In the case of LPDE4, the IC50 is the molar concentration of the test compound producing 50% inhibition of cAMP disappearance, assessed as described in Cortijo J et al Br J Pharmacol 1993, 108: 562-568, while in the case of HPDE4, the IC50 is the molar concentration of the test compound producing 50% inhibition of the binding of [H^3]rolipram, assessed as described in Duplantier A J et al J Med Chem 1996; 39: 120-125.
(§2) The affinity toward LPDE4 and HPDE4 was assessed as previously described respectively in Cortijo J et al Br J Pharmacol 1993, 108: 562-568 and Duplantier A J et al J Med Chem 1996; 39: 120-125.
(§3) The concentration of the test compounds ranged between 10^−12 M and 10^−5 M.
(§4) In the case of LPDE4, the IC50 is the molar concentration of the test compound producing 50% inhibition of cAMP disappearance, while in the case of HPDE4, the IC50 is the molar concentration of the test compound producing 50% inhibition of the binding of [H^3] rolipram.

[6] = tested on: LPDE4; test: Inhibition of low affinity LPDE4 (cAMP disappearance); format: biochemical; conditions: for IC50: 50% inhibition of cAMP disappearance; for HPDE4/LPDE4: ratio of IC50 values
Procedure: as §1, §2, §3, §4

IC50 [1] [nM]	Compound	IC50 [2] [nM]	further results
12.6	COc1ccc(C(=O)O/C(=C\c2c(Cl)cncc2Cl)c2ccc(OC)c(OC3CCCC3)c2)cc1OC [CHF 5532, 3,4-Dimethoxy-benzoic acid, (Z)-1-(3-cyclopentyloxy-4-methoxy-phenyl)-2-(3,5-dichloro-pyridin-4-yl)vinyl ester]	2.2	
1.7	COc1ccc(/C(=C/c2c(Cl)cncc2Cl)OC(=O)c2ccc(N)cc2)cc1OC [CHF 5530, 4-Amino-benzoic acid, (Z)-2-(3,5-dichloro-pyridin-4-yl)-1-(3,4-dimethoxy-phenyl)vinyl ester]	5.4	
7.3	COc1ccc(C(=O)O/C(=C\c2c(Cl)cncc2Cl)c2ccc(OC)c(OC3CCCC3)c2)cc1OCc1ccccc1 [CHF 5528, 3-Benzyloxy-4-methoxy-benzoic acid, (Z)-1-(3-cyclopentyloxy-4-methoxy-phenyl)-2-(3,5-dichloro-pyridin-4-yl)vinyl ester]	21.8	
17.9	COc1ccc(/C(=C/c2c(Cl)cncc2Cl)OC(=O)[C@@H](C)c2ccc(CC(C)C)cc2)cc1OC [CHF 5480, 2-(S)-(4-Isobutyl-phenyl)-propionic acid, (Z)-2-(3,5-dichloro-pyridin-4-yl)-1-(3,4-dimethoxy-phenyl)vinyl ester]	26	inhibition of bronchoalveolar lavage neutrophils ([3]; i.t. instillation 24 h and 1 h before LPS, doses 0.001 to 10 μmoles/kg): significant and dose-dependent inhibition; reduction of neutrophilia (maximal effect) ([3]; i.t., 1 μmole/kg dose): 60%; levels in plasma ([4]; i.t. administration, plasma): no detectable levels; MRT ([4]; rat, other: intratracheal (i.t.) instillation, lung, read-out: mean residence time in the lungs): 15.3 h
4	COc1ccc(C(=O)O/C(=C\c2c(Cl)cncc2Cl)c2ccc(OC(F)F)c(OCC3CC3)c2)cc1OC [CHF 5472, 3,4-Dimethoxy-benzoic acid, (Z)-1-(3-cyclopropylmethoxy-4-difluoromethoxy-phenyl)-2-(3,5-dichloro-pyridin-4-yl)vinyl ester]	5.4	
	COc1ccc(C(=O)Cc2c(Cl)cncc2Cl)cc1OC1CCCC1 [CHF 5400, 1-(3-cyclopentyloxy-4-methoxy-phenyl)-2-(3,5-dichloro-pyridin-4-yl)-ethanone, reference compound]		IC50 [5]: 0.61 nM; IC50 [6]: 0.94 nM; HPDE4/LPDE4 [6]: 1.5
0.5	COc1ccc(/C(=C/c2c(Cl)cncc2Cl)OC(=O)c2ccc([N+](=O)[O-])cc2)cc1OC [CHF 5513, 4-Nitro-benzoic acid, (Z)-2-(3,5-dichloro-pyridin-4-yl)-1-(3,4-dimethoxy-phenyl)vinyl ester]	8.5	
1.2	O=C(O/C(=C\c1c(Cl)cncc1Cl)c1ccc(OC(F)F)c(OCC2CC2)c1)c1ccc(OC(F)F)c(OCC2CC2)c1 [CHF 5514, 3-Cyclopropylmethoxy-4-difluoromethoxy-benzoic acid, (Z)-1-(3-cyclopropylmethoxy-4-difluoromethoxy-phenyl)-2-(3,5-dichloro-pyridin-4-yl)vinyl ester]	12.5	
5.7	COc1ccc(/C(=C/c2c(Cl)cncc2Cl)OC(=O)c2ccccc2)cc1OC [CHF 5415, Benzoic acid, (Z)-2-(3,5-dichloro-pyridin-4-yl)-1-(3,4-dimethoxy-phenyl)vinyl ester]	5.7	
	COc1ccc(C(=O)O/C(=C\c2c(Cl)cncc2Cl)c2ccc(OC)c(OCC3CC3)c2)cc1OCC1CC1 [CHF 5546, 3-Cyclopropylmethoxy-4-methoxy-benzoic acid, (Z)-1-(3-cyclopropylmethoxy-4-methoxy-phenyl)-2-(3,5-dichloro-pyridin-4-yl)vinyl ester]	1	
0.35	COc1ccc(/C(=C/c2c(Cl)cncc2Cl)OC(=O)c2ccc(NS(=O)(=O)c3ccc(C)cc3)cc2)cc1OC [CHF 5537, 4-(Toluene-4-sulfonylamino)-benzoic acid, (Z)-2-(3,5-dichloro-pyridin-4-yl)-1-(3,4-dimethoxy-phenyl)vinyl ester]	6.3	
13.8	COc1ccc(/C(=C/c2c(Cl)cncc2Cl)OC(=O)C2(c3ccc(C)cc3)CC2)cc1OC [CHF 5557, 1-p-Tolyl-cyclopropanecarboxylic acid, (Z)-2-(3,5-dichloro-pyridin-4-yl)-1-(3,4-dimethoxy-phenyl)vinyl ester]	10.1	
0.37	COc1ccc(/C(=C/c2c(Cl)cncc2Cl)OC(=O)c2ccc(NS(=O)(=O)c3ccc(F)cc3)cc2)cc1OC [CHF 5533, 4-(4-Fluoro-benzenesulfonylamino)-benzoic acid, (Z)-2-(3,5-dichloro-pyridin-4-yl)-1-(3,4-dimethoxy-phenyl)vinyl ester]	3.1	
6.1	COc1ccc(/C(=C/c2c(Cl)cncc2Cl)OC(=O)c2ccc(OC(F)F)c(OCC3CC3)c2)cc1OC [CHF 5555, 3-Cyclopropylmethoxy-4-difluoromethoxy-benzoic acid, (Z)-2-(3,5-dichloro-pyridin-4-yl)-1-(3,4-dimethoxy-phenyl)vinyl ester]	2	
1.3	COc1ccc(C(=O)O/C(=C\c2c(Cl)cncc2Cl)c2ccc(OC)c(OC3CCCC3)c2)cc1OC1CCCC1 [CHF 5408, 3-Cyclopentyloxy-4-methoxy-benzoic acid, (Z)-1-(3-cyclopentyloxy-4-methoxy-phenyl)-2-(3,5-dichloro-pyridin-4-yl)vinyl ester]	0.9	IC50 [5]: 0.74 nM; IC50 [6]: 42.6 nM; HPDE4/LPDE4 [6]: 57.6
0.7	COc1ccc(/C(=C/c2c(Cl)cncc2Cl)OC(=O)c2ccc(NS(C)(=O)=O)cc2)cc1OC [CHF 5526, 4-Methanesulfonylamino-benzoic acid (Z)-2-(3,5-dichloro-pyridin-4-yl)-1-(3,4-dimethoxy-phenyl)vinyl ester]	3.77	
1	COc1ccc(C(=O)O/C(=C\c2c(Cl)cncc2Cl)c2ccc(OC)c(OC)c2)cc1 [CHF 5429, 4-Methoxy-benzoic acid, (Z)-2-(3,5-dichloro-pyridin-4-yl)-1-(3,4-dimethoxy-phenyl)vinyl ester]	5.6	
